Data published in ChEMBL document CHEMBL3882730, “Organic Compounds as Smo Inhibitors” (2010).
Converted amounts (≈) assume the structure as drawn.

Assay: Equilibrium solubility of the compound at pH 6.8
Type: physicochemical
Settings: buffer

solubility thermodynamic [µM] | Structure (SMILES)
5 to 20 (≈ 2.22 to 8.89 µg/mL) | C[C@@H]1CN(c2nnc(Cc3ccccc3)c3c2CCC3)CCN1c1cnc(C(C)(C)O)cn1
< 5 | CC(C)(O)c1cnc(N2CCN(c3nnc(Cc4ccccc4)c4c3CCC4)CC2)cn1
